System: B16-OVA
Assay: In vivo adoptive cellular transfer, OT-I, B16-OVA tumor
Set-up: species or system mouse
Method: C57BL/6N mice were injected with 3×10^5 B16-OVA or B16 subcutaneously in the right flank. Five days after injection, mice were administered 200 μg cyclophosphamide monohydrate (Sigma #C73971G) dissolved in PBS by intraperitoneal injection to induce minor lymphodepletion. 48 hours after lymphodepletion, mice were intravenously adoptively transferred 2.5×10^6 CD8 OT-I or CD8 […] pre-treated ex vivo following the in vitro T cell activation method. Tumor growth rates were determined by tumor volume measurement beginning on day four and continuing three times per week for the study duration. Tumor volumes were determined by the ellipsoid formula: [(Length×Width^2)/2]. At the end of study, tumors were either fixed in 10% formalin or dissociated into a single-cell suspension for flow cytometry. […] Cells were then counted, filtered through a 70 μm cell strainer, and 10×10^6 cells were aliquoted and stained following the immune profiling by flow cytometry method.

## O=c1nc(OC[C@@H]2COCCO2)cc2n1CCc1cc(C#CC3CC3)ccc1-2 [GLPG1205, 9-Cyclopropylethynyl-2-((S)-1-[1,4]dioxan-2-ylmethoxy)-6,7-dihydropyrimido[6,1-a]isoquinolin-4-one]
T cells pre-treated ex vivo with 10 μM, B16-OVA tumor bearing mice, vs sham and DMSO pre-treated
  anti-tumor response (tumor volume) after adoptive transfer of pre-treated CD8 OT-I T cells: significantly enhanced this anti-tumor effect
T cells pre-treated with 10 μM, sham 20%, DMSO pre-treated 27.6%
  intratumoral CD8 T cells positive for SIINFEKL tetramer: 53.7%

From patent US20240358705A1, “COMPOSITIONS AND METHODS FOR TREATMENT OF CANCER” (Board of Supervisors of Louisiana State University and …, priority 2021, published 2024)
